“Also recorded” adds a separate entry of the source.
How the values were obtained:
L. innocua DPC3572 = experiment: Bacteriocin activity (BU/ml), dilution series in well diffusion assay; assay type: cell-based, Listeria innocua; settings: for Bacteriocin Activity (BU/ml) vs. L. innocua DPC3572: inverse of the highest dilution of bacterial supernatant showing activity in a well diffusion assay
Description: (§1) Bacteriocin activity was determined using well diffusion assays (WDAs). For Tuner^TM (DE3) E. coli transformants both the cell supernatant and the cell lysates were analyzed for antimicrobial activity, whilst only the supernatants were analyzed for L. paracasei NFBC338 cells. Supernatant was isolated by centrifugation of the liquid cultures at 4000 RCF for 15 min, these supernatants were then filtered using 0.20 μm membrane filters. For cell lysates, cell pellets were resuspended in 5 ml of phosphate-buffered saline (PBS), cells were lysed by sonication using a MSE Soniprep 150 (MSE, London, UK). Lysates were subsequently centrifuged at 4000 RCF for 15 min and the resulting supernatants were filtered using 0.20 μm membrane filters. For the indicator plates, 50 μl of an overnight culture of the indicator strain was added to the appropriate media containing 1% agar. Plates were cooled and 7 mm wells were bored in the agar. 50 μl of the cell supernatants/lysates being tested were added to each well and plates were refrigerated for 2 h prior to incubation under the appropriate conditions. WDAs were carried out in triplicate for each bacteriocin.
(§2) E. coli Tuner^TM (DE3) cells transformed with the newly constructed plasmids were grown in LB supplemented with glucose to maintain a low-copy number and bacteriocin expression was induced by co-incubation of the clones with 50 μM IPTG for 3 h. WDAs were used to identify bacteriocin activity from the bacterial supernatants and cell lysates. Bacteriocins were exclusively found in the bacterial supernatant. Antimicrobial activity was lower in cases where the native leader of the bacteriocin sequence was used; with only four of the nine strains displaying zones of inhibition against a sensitive indicator (pediocin 20336a has an identical leader to pediocin PA-1). For expression in L. paracasei NFBC338, cells were transformed by electroporation with the bacteriocin-containing pNZ44 vectors. Positive transformants were grown overnight and the neutralized cell free supernatant was used to identify bacteriocin production in WDAs.

L. mali DSM 20444 = experiment: Well diffusion assay, spectrum of bacteriocin activity; assay type: cell-based; settings: 50 μl filtered supernatant of E. coli Tuner (DE3) transformants encoding the pediocin PA-1 leader, 7 mm wells, triplicate
Description: as §1, §2
(§3) The spectrum of activity was determined using WDAs against 32 indicator strains for bacteriocins produced by the E. coli transformants encoding the pediocin leader (Table 2). Despite being of the same class of bacteriocins, these novel antimicrobials display a varying spectrum of activity. […] Many of these bacteriocins, however, can inhibit a wide range of Gram positive bacteria including potential pathogens such as Enterococcus faecalis. As with most class IIa bacteriocins, these also display potent anti-listerial activity.

E.mundtii LMG 10748 = experiment: as above; assay type: cell-based; settings: 50 μl filtered supernatant of E. coli Tuner (DE3) transformants encoding the pediocin PA-1 leader, 7 mm wells, triplicate
Description: as §1, §2, §3

[1] = tested on: E. saccharolyticus DPC 4902; experiment: as above; assay type: cell-based; settings: 50 μl filtered supernatant of E. coli Tuner (DE3) transformants encoding the pediocin PA-1 leader, 7 mm wells, triplicate
Description: as §1, §2, §3

[2] = tested on: Enterococcus faecalis LMG 7397; experiment: as above; assay type: cell-based; settings: 50 μl filtered supernatant of E. coli Tuner (DE3) transformants encoding the pediocin PA-1 leader, 7 mm wells, 1% agar, triplicate
Description: as §1, §2, §3

[3] = tested on: Li. monocytogenes DPC 6894; experiment: as above; assay type: cell-based; settings: 50 μl filtered supernatant of E. coli Tuner (DE3) transformants encoding the pediocin PA-1 leader, 7 mm wells, triplicate
Description: as §1, §2, §3

[4] = tested on: Listeria innocua DPC 3572; experiment: as above; assay type: cell-based; settings: 50 μl filtered supernatant of E. coli Tuner (DE3) transformants encoding the pediocin PA-1 leader, 7 mm wells, triplicate
Description: as §1, §2, §3

L. apodemi DSM 16654 = experiment: as above; assay type: cell-based; settings: 50 μl filtered supernatant of E. coli Tuner (DE3) transformants encoding the pediocin PA-1 leader, 7 mm wells, triplicate
Description: as §1, §2, §3

[5] = tested on: Li. monocytogenes WSL 1416; experiment: as above; assay type: cell-based; settings: 50 μl filtered supernatant of E. coli Tuner (DE3) transformants encoding the pediocin PA-1 leader, 7 mm wells, triplicate
Description: as §1, §2, §3

[6] = tested on: P. ethanolidurans DSM 22301; experiment: as above; assay type: cell-based; settings: 50 μl filtered supernatant of E. coli Tuner (DE3) transformants encoding the pediocin PA-1 leader, 7 mm wells, triplicate
Description: as §1, §2, §3

32 indicator strains = experiment: Well diffusion assays against the panel of 32 indicator strains; assay type: cell-based; settings: for Total no. of strains inhibited: of 32 indicator strains, supernatant of E. coli transformants encoding the pediocin leader; for antimicrobial activity / spectrum, in words: crude supernatant from the E. coli heterologous host, pediocin PA-1 leader
Description: as §1, §2, §3

[7] = tested on: Li. monocytogenes DPC 6893; experiment: Well diffusion assay, spectrum of bacteriocin activity; assay type: cell-based; settings: 50 μl filtered supernatant of E. coli Tuner (DE3) transformants encoding the pediocin PA-1 leader, 7 mm wells, triplicate
Description: as §1, §2, §3

[8] = tested on: Pediococcus stilesii DSM 18001; experiment: as above; assay type: cell-based; settings: 50 μl filtered supernatant of E. coli Tuner (DE3) transformants encoding the pediocin PA-1 leader, 7 mm wells, triplicate
Description: as §1, §2, §3

L. amylophilus DSM 20509 = experiment: as above; assay type: cell-based; settings: 50 μl filtered supernatant of E. coli Tuner (DE3) transformants encoding the pediocin PA-1 leader, 7 mm wells, triplicate
Description: as §1, §2, §3

P. clausenii DSM 14800 = experiment: as above; assay type: cell-based; settings: 50 μl filtered supernatant of E. coli Tuner (DE3) transformants encoding the pediocin PA-1 leader, 7 mm wells, triplicate
Description: as §1, §2, §3

L. plantarum DSM 13273 = experiment: as above; assay type: cell-based; settings: 50 μl filtered supernatant of E. coli Tuner (DE3) transformants encoding the pediocin PA-1 leader, 7 mm wells, triplicate
Description: as §1, §2, §3

L. nodensis DSM 16982 = experiment: as above; assay type: cell-based; settings: 50 μl filtered supernatant of E. coli Tuner (DE3) transformants encoding the pediocin PA-1 leader, 7 mm wells, triplicate
Description: as §1, §2, §3

L. crustorum JCM 15951 = experiment: as above; assay type: cell-based; settings: 50 μl filtered supernatant of E. coli Tuner (DE3) transformants encoding the pediocin PA-1 leader, 7 mm wells, triplicate
Description: as §1, §2, §3

[9] = produced by E. coli Tuner (DE3)
[10] = produced by L. paracasei NFBC338, neutralized cell free supernatant

Substance	Bacteriocin Activity (BU/ml) vs. L. innocua DPC3572 (L. innocua DPC3572; [9])	radius of the zone of inhibition (L. mali DSM 20444)	radius of the zone of inhibition (E.mundtii LMG 10748)	radius of the zone of inhibition [1]	radius of the zone of inhibition [2]	radius of the zone of inhibition [3]	radius of the zone of inhibition [4]	radius of the zone of inhibition (L. apodemi DSM 16654)	radius of the zone of inhibition [5]	radius of the zone of inhibition [6]	Bacteriocin Activity (BU/ml) vs. L. innocua DPC3572 (L. innocua DPC3572; [10])	radius of the zone of inhibition [7]	Total no. of strains inhibited (32 indicator strains)	also measured
–KYYGNGVSCG-KHTCKVNWGQAWNESVNRWGNSWVNGLTGLRQH— (disulfide) [Futcin (Fut), novel pediocin-like class IIa bacteriocin encoded by L. futsaii JCM 17355, heterologously expressed]	+ (+ = 0 – 160 BU/ml)	2.17 ± 0.85 millimeters	1.83 ± 0.24 millimeters	2 ± 0 millimeters	1.67 ± 0.47 millimeters	0.83 ± 0.24 millimeters	2.00 ± 0 millimeters	0.33 ± 0.47 millimeters	1 ± 0 millimeters	3 ± 0 millimeters				Total no. of strains inhibited (32 indicator strains; listed as Fut): 9; Total no. of strains inhibited (32 indicator strains; listed as futcin): nine
–KYYGNGVHCG-KKTCYVDWGQATASIGKIIVNGWTQHGPWAHR———- (disulfide) [Penocin A (PenA), previously characterized class IIa bacteriocin, here encoded by P. pentosaceus DSM 20336, heterologously expressed]	++ (++ = 320 – 2560 BU/ml)	1.50 ± 1.08 millimeters	1.33 ± 0.94 millimeters	1.33 ± 0.94 millimeters	0.67 ± 0.47 millimeters	0.67 ± 0.47 millimeters	2.50 ± 0.41 millimeters		0.67 ± 0.47 millimeters	2 ± 1.41 millimeters	+ (+ = 0 – 160 BU/ml)	0.67 ± 0.47 millimeters	12	radius of the zone of inhibition [8]: 0.67 ± 0.47 millimeters; radius of the zone of inhibition (L. amylophilus DSM 20509): 0.67 ± 0.47 millimeters; radius of the zone of inhibition (P. clausenii DSM 14800): 1 ± 0.82 millimeters
SRYYGNGITCG-KHKCTVNWGQAWTCGVNRLANFGH–G————–NC— (bicyclic or more) [Agilicin (Agl), novel pediocin-like class IIa bacteriocin encoded by L. agilis DSM 20509, heterologously expressed]	++ (++ = 320 – 2560 BU/ml)	4.50 ± 0.41 millimeters	3 ± 0 millimeters	3.33 ± 0.47 millimeters	2.17 ± 0.24 millimeters	4 ± 0 millimeters	5 ± 0 millimeters	2.67 ± 0.47 millimeters	2 ± 0.82 millimeters	3.33 ± 0.47 millimeters	++ (++ = 320 – 2560 BU/ml)	2 ± 0 millimeters	14	radius of the zone of inhibition (L. plantarum DSM 13273): 0.33 ± 0.47 millimeters; radius of the zone of inhibition (L. nodensis DSM 16982): 3.50 ± 0.71 millimeters; radius of the zone of inhibition (P. clausenii DSM 14800): 0.67 ± 0.47 millimeters; radius of the zone of inhibition (L. crustorum JCM 15951): 0.33 ± 0.47 millimeters
–KYYGNGVSCS-KHSCSVDWGKALTCTINNGAMAWTTGGHQGNHKC—- (bicyclic or more) [Rennicin A (RenA), novel pediocin-like class IIa bacteriocin encoded by L. rennini DSM 20253, heterologously expressed]	+ (+ = 0 – 160 BU/ml)	1 ± 0 millimeters	3.33 ± 0.47 millimeters	2.33 ± 0.47 millimeters	3 ± 0 millimeters	2 ± 1.41 millimeters	6.33 ± 0.94 millimeters	0.67 ± 0.47 millimeters	2.67 ± 0.47 millimeters	1.50 ± 0.41 millimeters	+ (+ = 0 – 160 BU/ml)	2 ± 0 millimeters	10	
–KNYGNGVYCTKKHGYKVDWGQAWSIIGNNSAANSTTRGAAGWKSK—- [Aquaticin (Aqu), novel pediocin-like class IIa bacteriocin encoded by L. aquaticus DSM 21051; peptide not identified by MALDI-TOF]													0	antimicrobial activity / spectrum, in words (32 indicator strains; listed as Aquaticin): failed to display antimicrobial activity; antimicrobial activity / spectrum, in words (32 indicator strains; listed as aquaticin): activity was not seen
–KYYGNGVSCG-KHSCSVDWGKATTCTINNSAMAWATSGHQGNHKC—- (bicyclic or more) [Rennicin B (RenB), novel pediocin-like class IIa bacteriocin encoded by L. rennini DSM 20253, heterologously expressed]											+ (+ = 0 – 160 BU/ml)		0	level of activity when expressed in L. paracasei NFBC338, in words (L. innocua DPC3572; expressed in L. paracasei NFBC338): equal levels of activity compared to rennicin A; antimicrobial activity / spectrum, in words (32 indicator strains): failed to display antimicrobial activity; also recorded: did not display activity
—-KYYGNGLHIPKHGKPYINWGQAIQSIGKISYHGWVNGITSGAAGVGRH [Acidicin (Acd), novel pediocin-like class IIa bacteriocin encoded by L. acidipiscis DSM 15836, heterologously expressed]		1.50 ± 0.41 millimeters											1	antimicrobial activity / spectrum, in words (32 indicator strains): displayed activity exclusively against L. mali
